The test has as its system SK-MEL-2 cells. As to the kind of experiment: MTT proliferation inhibition, NRAS mutant melanoma cell line. Particulars: Homo sapiens, SK-MEL-2, 72 h.

This passage reports IC50 results from patent EP4663631A1, “POLYMORPH AS PROTEIN KINASE MEK INHIBITOR, AND PREPARATION METHOD THEREFOR AND USE THEREOF” (Shanghai Kechow Pharma, Inc., priority 2023, dated 2024).

Each structure is given as a SMILES string. Where two headings read alike, the source gives them in different places.

Protocol: All cells were provided by Beijing Cancer Hospital. Human melanoma cell line SK-MEL-2 (NRAS Q61R) was cultured with MEM supplemented with 10%FBS and penicillin streptomycin in an incubator at 37 °C and 5% carbon dioxide.
When the confluence of the cultured cells reached more than 80%, the adherent cells were digested with trypsin and the cell precipitate was collected by centrifugation, counted, and 90 µL of the cell suspension was seeded in a 96-well plate at the appropriate density. […] Each concentration was set up three multiple Wells, a total of 9 concentration points. The Wells added with the same volume of 5% DMSO were used as control, and the final concentration of DMSO was 0.5%. After 3 days of drug treatment, the cell viability was detected by MTT, and 10 µL MTT was added to each well and incubated in the incubator for another 4 hours. After the supernatant was discarded and 150 µL DMSO was added to dissolve the crystal, and the absorbance at 490 nm was detected by microplate reader. The above experiments were repeated three times. The dose-effect curve was made and IC50 was calculated by GraphPad Prism 8 software.

As to `Cn1cnc2c(F)c(Nc3ccc(Br)cc3F)c(C(=O)NOCCO)cc21` [MEK162], the IC50 reads like this: (read-out: IC5o(nM) 1st) 74.8 nM; (read-out: IC5o(nM) 2nd) 68.3 nM; (read-out: IC5o(nM) 3rd) 222 nM; (read-out: Mean value (nM)) 122 nM.
